From patent US20220251084A1, “PROGRANULIN MODULATORS AND METHODS OF USING THE SAME” (ARKUDA THERAPEUTICS, priority 2019, published 2022)
Structures can show the parent of a compound that is named as a salt.

These molecules were tested on progranulin (PGRN) secretion, BV-2 cells (assay: PGRN assay: progranulin induction cellular assay (ELISA of secreted mouse PGRN)). Settings: not given.
Type: cell-based
Method in brief: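 Progranulin induction measured in BV-2 cells plated at about 80% confluence the day before, given 1 h to attach, then incubated 16 h. Secreted mouse PGRN quantified by ELISA.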

Going from `N#Cc1ccc2c(c1)[C@H](c1ccc(F)cc1)N(C(=O)O[C@@H]1CN3CCC1CC3)CC2` [Compound 2035] to `N#Cc1ccc2c(c1)CCN(C(=O)O[C@@H]1CN3CCC1CC3)[C@@H]2c1ccc(F)cc1` [Compound 2034], the EC50 falls from greater than 10000 nM to 6070 nM.

Same assay, conditions: Mus musculus, BV-2

Work on `C#CCOc1ccc2c(c1)CCN(C(=O)O[C@@H]1CN3CCC1CC3)[C@@H]2c1ccc(F)cc1` [Compound 2083] yielded an EC50 of 6070 nM.

Same assay, conditions: Mus musculus, BV-2, PGRN assay, Table C; secreted mouse PGRN in cell culture medium, ELISA

First: O=C(OCC12CCN(CC1)CC2)N1CCc2ccccc2[C@@H]1c1cc(F)cc(F)c1 (single isomer, unassigned) [Compound 2140, quinuclidin-4-ylmethyl-1-(3,5-difluorophenyl)-3,4-dihydroisoquinoline-2(1H)-carboxylate]
Second: O=C(OCC12CCN(CC1)CC2)N1CCc2ccccc2[C@H]1c1ccc(F)c(F)c1 [Compound 2111]
The EC50 of the first is 16-fold higher: 9910 nM for the first, 635 nM for the second.

Going from `CN1CC2CCC(C1)C2OC(=O)N1CCc2ccccc2[C@@H]1c1ccc(F)cc1` (single isomer, unassigned) [Compound 2093] to `CN1C2CCC1[C@H](OC(=O)N1CCc3ccccc3[C@H]1c1ccc(F)cc1)CC2` (stereo partly shown) [Compound 2017], the EC50 rises from 379 nM to 722 nM (1.9-fold). The first is the more potent here.

`O=C(N[C@H]1CCN2CCC[C@H]12)N1CCc2ccccc2[C@@H]1c1ccc(F)cc1` [Compound 2050] and `COC(C(=O)N1CCc2ccccc2[C@@H]1c1ccc(F)cc1)C1CN2CCC1CC2` (stereo partly drawn) [Compound 2175, 1-((S)-1-(4-fluorophenyl)-3,4-dihydroisoquinolin-2(1H)-yl)-2-methoxy-2-(quinuclidin-3-yl) ethenone] are within 1.5-fold of each other in EC50: 3900 nM for the first, 4130 nM for the second.

First: COc1ncc(COc2ccc([C@H]3c4ccccc4CCN3C(=O)OCC34CCN(CC3)CC4)cc2)cn1 [Compound 2145]
Second: C#CCOc1ccc2c(c1)[C@H](c1ccc(F)cc1)N(C(=O)OCC13CCN(CC1)CC3)CC2 [Compound 2052, (S)-quinuclidin-4-ylmethyl 1-(4-fluorophenyl)-7-(prop-2-ynyloxy)-3,4-dihydroisoquinoline-2(1H)-carboxylate]
The EC50 of the first is 2.3-fold lower: 2930 nM for the first, 6820 nM for the second. The first is the more potent here.

Going from `O=C(NCc1ccncc1)N1CCc2ccccc2[C@@H]1c1ccc(F)cc1` [Compound 2152] to `CN1CCO[C@H](CC(=O)N2CCc3ccccc3[C@@H]2c2ccc(F)cc2)C1` [Compound 2003], the EC50 falls from 6400 nM to 1130 nM (5.7-fold). The second is the more potent here.

`CNC(=O)c1ccc2c(c1)CCN(C(=O)N[C@@H]1CN3CCC1CC3)[C@H]2c1ccc(F)cc1` [Compound 2090] and `CNC(=O)c1ccc2c(c1)[C@H](c1ccc(F)cc1)N(C(=O)NCC13CCN(CC1)CC3)CC2` [Compound 2119, (S)-1-(4-fluorophenyl)-N7-methyl-N2-(quinuclidin-4-ylmethyl)-3,4-dihydroisoquinoline-2,7(1H)-dicarboxamide] cannot be ordered by EC50: greater than 10000 nM for the first, greater than 10000 nM for the second.

`CN1C2CCC1[C@@H](OC(=O)N1CCc3ccccc3[C@@H]1c1ccc(F)cc1)CC2` (stereo partly shown) [Compound 2016] showed an EC50 of 581 nM.

Same assay, conditions: Mus musculus, BV-2, PGRN assay, Table D; secreted mouse PGRN in cell culture medium, ELISA

Going from `O=C(O[C@@H]1CNC[C@H]1F)N1CCc2ccccc2[C@@H]1c1ccc(F)cc1` [Compound 2349, (3R,4R)-4-fluoropyrrolidin-3-yl (S)-1-(4-fluorophenyl)-3,4-dihydroisoquinoline-2(1H)-carboxylate] to `O=C(N[C@@H]1CNC[C@@H]1F)N1CCc2ccccc2[C@@H]1c1ccc(F)cc1` [Compound 2353], the EC50 falls from 346 nM to 33.9 nM (10-fold). The second is the more potent here.

`O=C(OC[C@H]1CCN1)N1CCc2ccccc2[C@@H]1c1ccc(F)cc1` [Compound 2240] and `N[C@H]1CCN(C(=O)N2CCc3ccccc3[C@H]2c2ccc(F)cc2)C1` (single isomer, unassigned) [Compound 2285] are within 1.5-fold of each other in EC50: 2390 nM for the first, 3440 nM for the second.

Compared with `CN1CCC(C(O)C(=O)N2CCc3ccccc3[C@@H]2c2ccc(F)cc2)C1` (stereo partly drawn) [Compound 2267, 1-((S)-1-(4-fluorophenyl)-3,4-dihydroisoquinolin-2(1H)-yl)-2-hydroxy-2-(1-methylpyrrolidin-3-yl)ethanone], `O=C(OCC[C@@H]1CN2CCC1CC2)N1CCc2ccccc2[C@@H]1c1ccc(F)cc1` [Compound 2206, 2-((S)-quinuclidin-3-yl)ethyl (S)-1-(4-fluorophenyl)-3,4-dihydroisoquinoline-2(1H)-carboxylate formate] is 15-fold higher in EC50: 130 nM for the first, 1990 nM for the second. The first is the more potent here.
